Test results reported in the supplement of paper PMC10307832.

Assays:
Test in all cases: relative viability (nuclei count vs DMSO), 5 days (fraction); higher = more cells survive
Crizotinib + Linsitinib = compound: C[C@@H](Oc1cc(-c2cnn(C3CCNCC3)c2)cnc1N)c1c(Cl)ccc(F)c1Cl [Crizotinib] + C[C@]1(O)C[C@@H](c2nc(-c3ccc4ccc(-c5ccccc5)nc4c3)c3c(N)nccn32)C1 [Linsitinib] (partner 1 µM)
Outline: (§1)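 Medians of duplicate plates are given as relative viability. That measure is the nuclei count in treated wells divided by the count in vehicle wells. Counts were taken on 4× images of lung cancer cell lines in 1536-well plates, 5 days after pin-tool dosing the day after seeding with one drug alone or a fixed anchor-drug dose plus five library-drug doses (not always all listed) in √10 steps.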

Olaparib + Dasatinib = compound: O=C(c1cc(Cc2n[nH]c(=O)c3ccccc23)ccc1F)N1CCN(C(=O)C2CC2)CC1 [Olaparib] + Cc1nc(Nc2ncc(C(=O)Nc3c(C)cccc3Cl)s2)cc(N2CCN(CCO)CC2)n1 [Dasatinib] (partner 0.075 µM)
Outline: as §1

Carfilzomib + Linsitinib = compound: CC(C)C[C@H](NC(=O)[C@H](CCc1ccccc1)NC(=O)CN1CCOCC1)C(=O)N[C@@H](Cc1ccccc1)C(=O)N[C@@H](CC(C)C)C(=O)[C@@]1(C)CO1 [Carfilzomib] + C[C@]1(O)C[C@@H](c2nc(-c3ccc4ccc(-c5ccccc5)nc4c3)c3c(N)nccn32)C1 [Linsitinib] (partner 1 µM)
Outline: as §1

Olaparib + OSI-027 = compound: O=C(c1cc(Cc2n[nH]c(=O)c3ccccc23)ccc1F)N1CCN(C(=O)C2CC2)CC1 [Olaparib] + COc1cccc2cc(-c3nc([C@H]4CC[C@H](C(=O)O)CC4)n4ncnc(N)c34)[nH]c12 [OSI-027] (partner 0.5 µM)
Outline: as §1

## SK-LU-1
Crizotinib + Linsitinib; first compound 0.01 µM
  relative viability: 1.07
Crizotinib + Linsitinib; first compound 0.03162 µM
  relative viability: 1.12
Crizotinib + Linsitinib; first compound 0.1 µM
  relative viability: 1.22
Crizotinib + Linsitinib; first compound 0.3162 µM
  relative viability: 1.14
Crizotinib + Linsitinib; first compound 1 µM
  relative viability: 1.11
Olaparib + Dasatinib; first compound 0.08 µM
  relative viability: 0.197
Olaparib + Dasatinib; first compound 0.253 µM
  relative viability: 0.159
Olaparib + Dasatinib; first compound 2.53 µM
  relative viability: 0.181
Olaparib + Dasatinib; first compound 8 µM
  relative viability: 0.161
Carfilzomib + Linsitinib; first compound 0.001 µM
  relative viability: 1.08
Carfilzomib + Linsitinib; first compound 0.003162 µM
  relative viability: 1.34
Carfilzomib + Linsitinib; first compound 0.01 µM
  relative viability: 0.949
Carfilzomib + Linsitinib; first compound 0.03162 µM
  relative viability: 0.173
Carfilzomib + Linsitinib; first compound 0.1 µM
  relative viability: 0.161
Olaparib + OSI-027; first compound 0.08 µM
  relative viability: 0.345
Olaparib + OSI-027; first compound 0.253 µM
  relative viability: 0.331
Olaparib + OSI-027; first compound 2.53 µM
  relative viability: 0.382
Olaparib + OSI-027; first compound 8 µM
  relative viability: 0.24

## SK-MES-1
Crizotinib + Linsitinib; first compound 0.01 µM
  relative viability: 1.02
Crizotinib + Linsitinib; first compound 0.03162 µM
  relative viability: 1.1
Crizotinib + Linsitinib; first compound 0.1 µM
  relative viability: 1.15
Crizotinib + Linsitinib; first compound 0.3162 µM
  relative viability: 0.982
Olaparib + Dasatinib; first compound 0.08 µM
  relative viability: 0.41
Olaparib + Dasatinib; first compound 0.253 µM
  relative viability: 0.323
Olaparib + Dasatinib; first compound 2.53 µM
  relative viability: 0.431
Olaparib + Dasatinib; first compound 8 µM
  relative viability: 0.228
Carfilzomib + Linsitinib; first compound 0.001 µM
  relative viability: 1.17
Carfilzomib + Linsitinib; first compound 0.003162 µM
  relative viability: 1.16
Carfilzomib + Linsitinib; first compound 0.01 µM
  relative viability: 1.17
Carfilzomib + Linsitinib; first compound 0.03162 µM
  relative viability: 1.03
Carfilzomib + Linsitinib; first compound 0.1 µM
  relative viability: 0.334
Olaparib + OSI-027; first compound 0.08 µM
  relative viability: 0.674
Olaparib + OSI-027; first compound 0.253 µM
  relative viability: 0.553
Olaparib + OSI-027; first compound 2.53 µM
  relative viability: 0.577
Olaparib + OSI-027; first compound 8 µM
  relative viability: 0.459

## SW 1573
Crizotinib + Linsitinib; first compound 0.01 µM
  relative viability: 0.707
Crizotinib + Linsitinib; first compound 0.03162 µM
  relative viability: 0.73
Crizotinib + Linsitinib; first compound 0.1 µM
  relative viability: 0.802
Crizotinib + Linsitinib; first compound 0.3162 µM
  relative viability: 0.802
Olaparib + Dasatinib; first compound 0.08 µM
  relative viability: 0.698
Olaparib + Dasatinib; first compound 0.253 µM
  relative viability: 0.456
Olaparib + Dasatinib; first compound 2.53 µM
  relative viability: 0.504
Olaparib + Dasatinib; first compound 8 µM
  relative viability: 0.354
Carfilzomib + Linsitinib; first compound 0.001 µM
  relative viability: 0.736
Carfilzomib + Linsitinib; first compound 0.003162 µM
  relative viability: 0.881
Carfilzomib + Linsitinib; first compound 0.01 µM
  relative viability: 0.75
Carfilzomib + Linsitinib; first compound 0.03162 µM
  relative viability: 0.268
Carfilzomib + Linsitinib; first compound 0.1 µM
  relative viability: 0.0735
Olaparib + OSI-027; first compound 0.08 µM
  relative viability: 0.738
Olaparib + OSI-027; first compound 0.253 µM
  relative viability: 0.675
Olaparib + OSI-027; first compound 2.53 µM
  relative viability: 0.471
Olaparib + OSI-027; first compound 8 µM
  relative viability: 0.517

## UMC-11
Crizotinib + Linsitinib; first compound 0.03162 µM
  relative viability: 1.04
Crizotinib + Linsitinib; first compound 0.3162 µM
  relative viability: 1.16
Crizotinib + Linsitinib; first compound 1 µM
  relative viability: 0.96
Olaparib + Dasatinib; first compound 0.08 µM
  relative viability: 0.464
Olaparib + Dasatinib; first compound 0.253 µM
  relative viability: 0.47
Olaparib + Dasatinib; first compound 2.53 µM
  relative viability: 0.452
Olaparib + Dasatinib; first compound 8 µM
  relative viability: 0.396
Carfilzomib + Linsitinib; first compound 0.001 µM
  relative viability: 0.981
Carfilzomib + Linsitinib; first compound 0.003162 µM
  relative viability: 1.03
Carfilzomib + Linsitinib; first compound 0.01 µM
  relative viability: 1.01
Carfilzomib + Linsitinib; first compound 0.03162 µM
  relative viability: 0.949
Carfilzomib + Linsitinib; first compound 0.1 µM
  relative viability: 0.224
Olaparib + OSI-027; first compound 0.08 µM
  relative viability: 0.474
Olaparib + OSI-027; first compound 0.253 µM
  relative viability: 0.392
Olaparib + OSI-027; first compound 2.53 µM
  relative viability: 0.481
Olaparib + OSI-027; first compound 8 µM
  relative viability: 0.334
